Like-named read-outs stand apart in the source and are kept apart here. Bounds are passed on as bounds.

Format in all cases: cell-based, human
Test [1] concerns HCT116 cells. The experiment in a line: Proliferation inhibition, CellTiter-Glo, HCT116. As to conditions: Table D-1, HCT116 (KRAS G13D), 3 days, read-out: Prolif. (proliferation EC50). The method, then: (§1) All cancer cell lines (A375, A101D, A2058, RKO, HT29 SK-MEL 30, IPC298, HepG2, HCT-116, Lovo, SW620, SW480, NCI-H358, NCI-H2122, Calu-6, NCIH2087, NCIH1755, NCIH1666 and Mewo) were obtained from ATCC and cultured in RPM1-1640 medium (Gibco) supplemented with 5% heat inactivated fetal bovine serum (FBS, Wisent) at 37° C. under 5% CO2. Cells were maintained in T175 flasks (Greiner). They were passaged by removing the culture medium, washing once in 10 mL of room temperature Phosphate Buffered Saline (PBS; Wisent) and incubating at 37° C. with 2 mL of 0.05% Trypsin (Thermo-Fisher). Trypsin was then inactivated by adding complete growth medium and the cells were then replated in a T175 culture dish at the appropriate dilution. All cell lines were routinely tested for mycoplasma contamination. Tissue type and mutational status of each cell line can be found in Table B.
(§2) CellTiter-Glo® viability analysis was conducted on cells plated in 100 μL of complete RPMI-1640 growth medium in 96-well flat-bottomed white opaque plates (Greiner or Croning) at a density indicated in Table E (for each CCL, number of cells plated per well of a 96-well plate to perform the CellTiter-Glo® cell viability assay). The cell density in cells/cm^2 would correspond to cell number divided by the area of one well of a 96-well plate (0.32 cm^2). […]
(§3) After 3 days of incubation, the growth media were removed by aspiration and 60 μL of diluted CellTiter-Glo® reagent (10 μL CellTiter-Glo® reagent+50 μL of PBS) was added to each well. […] Luminescence signals were then acquired on a Synergy Neo2 plate reader (Biotek).
(§4) The effect of each compound dilution on the proliferation of cancer cell lines was expressed in % inhibition and calculated as follows. […]
(§5) The ability of each compound to inhibit proliferation was expressed as a EC50 value obtained by plotting the effect values for each data point of a dilution series and fitting the obtained curves using a log(agonist) versus response—variable slope (four parameters) function using GraphPadPrism (V7.0) or Dotmatics Screening Ultra platform.
In general terms: ATP-based viability assays read luminescence as a measure of living cells.

The test system of test [2] is pERK, Lovo cells. The experiment in a line: Phospho-ERK inhibition, AlphaLISA p-ERK 1/2, Lovo. As to conditions: Table D-2; for IC50: Lovo (KRAS-G13D); for pERK value in parentheses, % inhibition (Ymin): Lovo, lowest point of IC50 curve. The protocol: as §1
(§6) (c) Measurement of Phospho-ERK Inhibition in Cultivated Human Cancer Cell Lines by the AlphaLISA® SureFire® Ultra™ p-ERK 1/2 (Thr2O2/Tyr204)
(§7) AlphaLISA® SureFire® Ultra™ p-ERK 1/2 (Thr202/Tyr204) analysis was conducted on cells plated in 100 μL of complete RPMI-1640 growth medium in 96-well flat-bottomed transparent dishes (Costar) at a density indicated in Table C. Cells were maintained overnight at 37° C. under 5% CO2 before treatment with compounds' dilution series for one hour. The cell density in cells/cm^2 corresponds to cell number divided by the area of one well of a 96-well plate (0.143 cm^2).
(§8) In a dilution series 100 μL/well of test substance dilution prepared in complete RPMI-1640 growth media was added to the cells. The dilution series is selected so that ten concentrations cover a range from 10 μM to 0.33 nM. If necessary, the initial concentration of 10 μM is increased to 100 μM or lowered to 1 μM (as in the case of A375 and H1666 cells, which are generally more sensitive to the compounds) and further dilution is carried out accordingly. The final concentration of DMSO in the assay is set at 0.5%.
(§9) After treatment, media was removed, and cells were lysed in 50 μL of 1× AlphaScreen Ultra Lysis Buffer (Perkin Elmer). The AlphaLISA® SureFire® Ultra™ p-ERK 1/2 (Thr202/Tyr204) (PerkinElmer) reactions were performed with 5 μL of cell lysate according to the manufacturer's specifications in 384-well proxyplates (Perkin Elmer) followed by overnight incubation of the reactions at room temperature in a humidified chamber. After completion of the reactions, the signals were recorded on an EnVision plate reader (Perkin Elmer) using built in AlphaLISA® settings.
(§10) The effect of each compound dilution on the pERK signal was expressed in % inhibition and calculated as follows. An internal 100% inhibition control (1 μM trametinib, cat. No. HY-10999; MedChem Express; CAS No. 871700-17-3) was included in each plate and used as a measure of pERK background. First, the value obtained for trametinib was subtracted from each data point. The average of DMSO (vehicle) controls (set as 0% inhibition) was established and used to calculate % inhibition:
(§11) The ability of each compound to inhibit pERK signal was expressed as an IC50 value obtained by plotting the inhibition values for each data point of a dilution series and fitting the obtained curves using a log(agonist) versus response—variable slope (four parameters) function using GraphPadPrism (V7.0) or Dotmatics Screening Ultra platform.
(§12) When present, paradoxical pERK induction is inferred from the negative % inhibition values observed in the pERK IC50 curves of a compound.

Test [3] relates to pERK, NCI-H2122 cells. Kind of test: Phospho-ERK inhibition, AlphaLISA p-ERK 1/2, NCI-H2122. As to conditions: Table D-2; for IC50: NCI-H2122 (KRAS-G12C); for pERK value in parentheses, % inhibition (Ymin): NCI-H2122, lowest point of IC50 curve. The protocol: as §1, §6, §7, §8, §9, §10, §11, §12
The subject of test [4] is pERK, NCIH1755 cells. The experiment in a line: Phospho-ERK inhibition, AlphaLISA p-ERK 1/2, NCIH1755. To be noted: Table D-2; for IC50: NCIH1755 (BRAF G469A); for pERK value in parentheses, % inhibition (Ymin): NCIH1755, lowest point of IC50 curve. The method, then: as §1, §6, §7, §8, §9, §10, §11, §12
(In general: Alpha assays give light when donor and acceptor beads are brought close together.)

The subject of test [5] is SW480 cells. Kind of test: Proliferation inhibition, CellTiter-Glo, SW480. To be noted: Table D-2, SW480 (KRAS G12D), 3 days, read-out: Prolif. (proliferation EC50). The protocol:
as §1, §2, §3, §4, §5

One may read the IC50 as the concentration at which inhibition is half-maximal. High values mean weaker potency in that assay, low ones greater potency in that assay. For `Cc1ccc2c(Nc3cccc(Cl)c3F)nccc2c1NC(=O)c1csc2c(N)ncnc12` [Belvarafenib, reference compound], the EC50 in test [1] (Homo sapiens, HCT-116, 72 h) lay within 0.3 to 3 µM; in test [5] (Homo sapiens, 72 h), 0.3 to 3 µM. The concentration for half-maximal inhibition (IC50) in test [2] (Homo sapiens) is below 0.03 µM; in test [3] (Homo sapiens), 0.03 to 0.3 µM; in test [4] (Homo sapiens, NCI-H1755), 0.03 to 0.3 µM. Moreover, the “pERK value in parentheses, % inhibition (Ymin)” value (“pERK value … % inhibition (Ymin)” below) is on record as “(−12) %” in test [2], “(−9) %” in test [3] and “(−79) %” in test [4].
For `Cc1c(F)cccc1S(=O)(=O)Nc1ccc(F)c(Nc2ncnc3sc(-n4cc(C(=O)N5C6CCC5CN(C)C6)c5ccccc54)nc23)c1F` [Example 44], the EC50 in test [1] and in test [5] was below 0.3 µM each time. The IC50 is 0.03 to 0.3 µM in test [2], 0.03 to 0.3 µM in test [3] and below 0.03 µM in test [4]. Also, the entries for the “pERK value … % inhibition (Ymin)” value in test [2], in test [3] and in test [4] were “(−10) %”, “(−11) %” and “(−9) %”, respectively.
For `N#CC1(c2cccc3c2ncn3-c2nc3c(Nc4c(F)ccc(NS(=O)(=O)c5cccc(Cl)c5Cl)c4F)ncnc3s2)CC1` [Example 122], the EC50 in test [1] and in test [5] was below 0.3 µM throughout. Besides, the IC50 is 0.03 to 0.3 µM in test [2], 0.03 to 0.3 µM in test [3] and below 0.03 µM in test [4]. The “pERK value … % inhibition (Ymin)” value is given as “(13) %” in test [2], “(27) %” in test [3] and “(11) %” in test [4].

These data come from US20260137697A1, “THIAZOLO[5,4-D]PYRIMIDINE COMPOUNDS, COMPOSITIONS COMPRISING THEM AND USES THEREOF” (University de Montreal, priority 2022, published 2026).
